{
  "source": "paper PMC7179653",
  "about": "(Antimicrobial Agents and Chemotherapy, 2020)",
  "assay": "MAD study: nacubactam pharmacokinetics, multiple doses and single dose alone or with meropenem",
  "format": "in vivo, human",
  "conditions": "for CL renal at 7 days / CL renal: plasma and urine; for AUC(0-t): read-out: AUC0–8h; for Tmax at 7 days: day 7, n = 6, median (range)",
  "procedure": "The MAD study consisted of three parts (Fig. 1). […] Participants were enrolled in two sequential cohorts (cohort 1, followed by cohort 2). […] Participants were also enrolled in two sequential cohorts (cohort 3, followed by cohort 4). […] A washout period of approximately 24 h between treatments was provided. Study treatments were administered as 30-min (SAD study) or 90-min (MAD study) i.v. infusions, the latter to investigate the pharmacokinetics using a longer infusion time, which is commonly used to increase the time above the MIC of β-lactams ([15]). The choice of a 90-min infusion time for the MAD study was dictated by the stability and toxicology data available at the time the study was being designed. […] Safety assessments included monitoring of AEs, laboratory safety tests (hematology, serum chemistry, and urinalysis), 12-lead ECG (discrete recordings and 24-h Holter recording), and vital signs (blood pressure, pulse rate, and body temperature). In the SAD study, safety assessments were performed predose at screening, at day 1, postdose periodically on days 1, 2, and 7 (follow-up), and at early withdrawal, if relevant. […] In the MAD study, safety assessments were done predose at screening, at day 2, postdose periodically on days 1, 2, 4, 7, and 8, on days 13 to 15 (follow-up), and at early withdrawal, if relevant. […] On all other days, a single predose sample was collected for pharmacokinetic evaluation prior to the morning infusion. Blood was collected into lithium-heparin tubes and stored at a nominal –80°C temperature until analysis.",
  "key": {"[1]": {"conditions": "MAD part 3, single dose (day 1 or 2) nacubactam 2,000 mg alone, geometric mean (%CV)"}, "[2]": {"conditions": "MAD part 3, single dose (day 3) nacubactam 2,000 mg plus meropenem 2,000 mg, geometric mean (%CV)"}, "[3]": {"conditions": "human, plasma, intravenous, 1000 mg, MAD part 1, 1,000 mg q8h for 7 days, day 7, n = 6, geometric mean (%CV)"}, "[4]": {"conditions": "human, plasma, intravenous, 2000 mg"}, "[5]": {"conditions": "human, plasma, intravenous, 2000 mg, MAD part 1, 2,000 mg q8h for 7 days, day 7, n = 6, geometric mean (%CV)"}, "[6]": {"conditions": "human, plasma, intravenous, 2000 mg, MAD part 3, single dose (day 1 or 2) nacubactam 2,000 mg alone, geometric mean (%CV)"}, "[7]": {"conditions": "human, plasma, intravenous, 4000 mg, MAD part 2, 4,000 mg q8h for 7 days, day 9, n = 6, geometric mean (%CV)"}, "[8]": {"conditions": "human, plasma, intravenous, MAD part 3, single dose (day 3) nacubactam 2,000 mg plus meropenem 2,000 mg, geometric mean (%CV)"}},
  "note": "Read-outs that look alike come from different tables or passages of the source.",
  "data": [
    {"smiles": "NCCONC(=O)[C@@H]1CC[C@@H]2CN1C(=O)N2OS(=O)(=O)O", "note": "[Nacubactam]", "values": [
      {"measurement": "Fe%0–8h (cumulative percentage of dose excreted in urine from time zero to 8 h)", "setting": "MAD part 1, 1,000 mg q8h for 7 days, day 7, n = 6, geometric mean (%CV)", "value": "81.9 (1) %"},
      {"measurement": "Fe%0–8h (cumulative percentage of dose excreted in urine from time zero to 8 h)", "setting": "MAD part 1, 2,000 mg q8h for 7 days, day 7, n = 6, geometric mean (%CV)", "value": "87.0 (11) %"},
      {"measurement": "Fe%0–8h (cumulative percentage of dose excreted in urine from time zero to 8 h)", "setting": "MAD part 2, 4,000 mg q8h for 7 days, day 9, n = 6, geometric mean (%CV)", "value": "83.9 (9) %"},
      {"measurement": "Fe%0–8h (cumulative percentage of dose excreted in urine from time zero to 8 h)", "setting": "[1]", "value": "85.5 (13) %"},
      {"measurement": "Fe%0–24h (cumulative percentage of dose excreted in urine from time zero to 24 h)", "setting": "[1]", "value": "91.1 (10) %"},
      {"measurement": "Fe%0–8h (cumulative percentage of dose excreted in urine from time zero to 8 h)", "setting": "[2]", "value": "82.7 (12) %"},
      {"measurement": "Fe%0–24h (cumulative percentage of dose excreted in urine from time zero to 24 h)", "setting": "[2]", "value": "88.4 (11) %"},
      {"measurement": "accumulation in plasma", "setting": "following 7 days of q8h dosing", "value": "minimal accumulation"},
      {"measurement": "route of elimination", "setting": "following single and multiple doses", "value": "excreted largely unchanged into urine"},
      {"measurement": "contribution of nonrenal elimination processes on clearance", "setting": "from difference between CL and CLR", "value": "< 20", "unit": "%"},
      {"measurement": "CL renal at 7 days", "setting": "human, intravenous, 1000 mg, MAD part 1, 1,000 mg q8h for 7 days, day 7, n = 6, geometric mean (%CV)", "value": 112, "unit": "mL/min"},
      {"measurement": "CL renal at 7 days", "setting": "human, intravenous, 2000 mg, MAD part 1, 2,000 mg q8h for 7 days, day 7, n = 6, geometric mean (%CV)", "value": 104, "unit": "mL/min"},
      {"measurement": "CL renal", "setting": "human, intravenous, 2000 mg, MAD part 3, single dose (day 1 or 2) nacubactam 2,000 mg alone, geometric mean (%CV), read-out: CLR (converted)", "value": 142, "unit": "mL/min"},
      {"measurement": "CL renal at 7 days", "setting": "human, intravenous, 4000 mg, MAD part 2, 4,000 mg q8h for 7 days, day 9, n = 6, geometric mean (%CV)", "value": 113, "unit": "mL/min"},
      {"measurement": "CL renal", "setting": "human, intravenous, MAD part 3, single dose (day 3) nacubactam 2,000 mg plus meropenem 2,000 mg, geometric mean (%CV), read-out: CLR (converted)", "value": 135, "unit": "mL/min"},
      {"measurement": "CL renal", "setting": "human, intravenous, single (1,000 to 8,000 mg) and multiple (1,000 to 4,000 mg) doses, read-out: estimated CLR, range", "value": "91.7 to 142", "unit": "mL/min"},
      {"measurement": "Cmax at 7 days", "setting": "[3]", "value": 36.6, "unit": "µg/mL"},
      {"measurement": "half-life", "setting": "[3]", "value": 2.66, "unit": "h"},
      {"measurement": "AUC(0-t)", "setting": "[3]", "value": 118, "unit": "µg·h/mL"},
      {"measurement": "clearance", "setting": "human, plasma, intravenous, 1000 mg, MAD part 1, 1,000 mg q8h for 7 days, day 7, n = 6, geometric mean (%CV), read-out: CL (converted)", "value": 142, "unit": "mL/min"},
      {"measurement": "Vd at 7 days", "setting": "human, plasma, intravenous, 1000 mg, MAD part 1, 1,000 mg q8h for 7 days, day 7, n = 6, geometric mean (%CV), read-out: Vss", "value": 21.9, "unit": "L"},
      {"measurement": "Tmax at 7 days", "setting": "human, plasma, intravenous, 1000 mg, MAD part 1, 1,000 mg q8h for 7 days", "value": 1, "unit": "h"},
      {"measurement": "AUC(0-inf)", "setting": "[4]", "value": 225, "unit": "µg·h/mL"},
      {"measurement": "Cmax", "setting": "[4]", "value": 66, "unit": "µg/mL"},
      {"measurement": "Tmax", "setting": "[4]", "value": 1, "unit": "h"},
      {"measurement": "Cmax at 7 days", "setting": "[5]", "value": 89.6, "unit": "µg/mL"},
      {"measurement": "half-life", "setting": "[5]", "value": 2.66, "unit": "h"},
      {"measurement": "AUC(0-t)", "setting": "[5]", "value": 279, "unit": "µg·h/mL"},
      {"measurement": "clearance", "setting": "human, plasma, intravenous, 2000 mg, MAD part 1, 2,000 mg q8h for 7 days, day 7, n = 6, geometric mean (%CV), read-out: CL (converted)", "value": 119, "unit": "mL/min"},
      {"measurement": "Vd at 7 days", "setting": "human, plasma, intravenous, 2000 mg, MAD part 1, 2,000 mg q8h for 7 days, day 7, n = 6, geometric mean (%CV), read-out: Vss", "value": 16.5, "unit": "L"},
      {"measurement": "half-life", "setting": "[6]", "value": 2.63, "unit": "h"},
      {"measurement": "AUC(0-t)", "setting": "[6]", "value": 201, "unit": "µg·h/mL"},
      {"measurement": "clearance", "setting": "human, plasma, intravenous, 2000 mg, MAD part 3, single dose (day 1 or 2) nacubactam 2,000 mg alone, geometric mean (%CV), read-out: CL (converted)", "value": 148, "unit": "mL/min"},
      {"measurement": "Tmax at 7 days", "setting": "human, plasma, intravenous, 2000 mg, MAD part 1, 2,000 mg q8h for 7 days", "value": 1.33, "unit": "h"},
      {"measurement": "Vd", "setting": "human, plasma, intravenous, 2000 mg, read-out: Vss", "value": 26.2, "unit": "L"},
      {"measurement": "Cmax at 7 days", "setting": "[7]", "value": 179, "unit": "µg/mL"},
      {"measurement": "half-life", "setting": "[7]", "value": 2.69, "unit": "h"},
      {"measurement": "AUC(0-t)", "setting": "[7]", "value": 496, "unit": "µg·h/mL"},
      {"measurement": "clearance", "setting": "human, plasma, intravenous, 4000 mg, MAD part 2, 4,000 mg q8h for 7 days, day 9, n = 6, geometric mean (%CV), read-out: CL (converted)", "value": 134, "unit": "mL/min"},
      {"measurement": "Vd at 7 days", "setting": "human, plasma, intravenous, 4000 mg, MAD part 2, 4,000 mg q8h for 7 days, day 9, n = 6, geometric mean (%CV), read-out: Vss", "value": 20.1, "unit": "L"},
      {"measurement": "half-life", "setting": "[8]", "value": 2.38, "unit": "h"},
      {"measurement": "AUC(0-t)", "setting": "[8]", "value": 204, "unit": "µg·h/mL"},
      {"measurement": "clearance", "setting": "human, plasma, intravenous, MAD part 3, single dose (day 3) nacubactam 2,000 mg plus meropenem 2,000 mg, geometric mean (%CV), read-out: CL (converted)", "value": 149, "unit": "mL/min"},
      {"measurement": "clearance", "setting": "human, plasma, intravenous, single (1,000 to 8,000 mg) and multiple (1,000 to 4,000 mg) doses, read-out: estimated CL, range on average", "value": "120 to 148", "unit": "mL/min"}
    ]}
  ]
}
